Measurements taken from US12391679B2, “Benzamide-substituted bicyclic imidazo- and pyrazolo-fused -pyridine, -pyrimide, and -pyridazine compounds for treatment of inflammatory diseases” (ONCO3R Therapeutics BV, priority 2019, dated 2025).

What was measured:
Format in all cases: biochemical
SIK3 = target: T1, SIK3 (Homo sapiens, UniProt Q9Y2K2); experiment: ADP-Glo kinase assay, SIK3
T1 construct: purchased SignalChem S12-11G-100
In short: (§1)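 Each SIK isoform is incubated with substrate and ATP for 2 h at room temperature, after which residual ATP is depleted and the ADP formed is quantified by luminescence.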

SIK1 = target: T2, SIK1 (Homo sapiens, UniProt P57059); experiment: ADP-Glo kinase assay, SIK1
T2 construct: purchased Carna Biosciences 02-131
T2 sequence (P57059 whole entry): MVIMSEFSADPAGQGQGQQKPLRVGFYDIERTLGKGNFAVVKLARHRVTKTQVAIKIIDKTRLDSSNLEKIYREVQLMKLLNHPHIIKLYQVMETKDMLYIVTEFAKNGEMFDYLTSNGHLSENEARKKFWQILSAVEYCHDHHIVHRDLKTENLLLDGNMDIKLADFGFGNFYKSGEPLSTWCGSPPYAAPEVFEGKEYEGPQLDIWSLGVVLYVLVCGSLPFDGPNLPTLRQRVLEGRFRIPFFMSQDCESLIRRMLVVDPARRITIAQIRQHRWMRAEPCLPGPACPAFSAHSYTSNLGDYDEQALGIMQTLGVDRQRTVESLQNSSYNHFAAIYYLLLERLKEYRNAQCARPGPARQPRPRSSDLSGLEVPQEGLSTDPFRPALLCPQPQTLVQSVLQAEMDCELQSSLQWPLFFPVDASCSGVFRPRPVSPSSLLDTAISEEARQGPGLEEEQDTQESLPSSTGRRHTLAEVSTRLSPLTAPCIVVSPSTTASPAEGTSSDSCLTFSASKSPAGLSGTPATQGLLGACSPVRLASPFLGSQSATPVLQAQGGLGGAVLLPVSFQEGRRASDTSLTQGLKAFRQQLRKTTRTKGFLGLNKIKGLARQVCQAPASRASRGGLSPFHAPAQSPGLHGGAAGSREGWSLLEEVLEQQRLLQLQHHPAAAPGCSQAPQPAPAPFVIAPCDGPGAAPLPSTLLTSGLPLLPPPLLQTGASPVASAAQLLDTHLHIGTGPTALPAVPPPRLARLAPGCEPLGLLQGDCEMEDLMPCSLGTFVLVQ
In short: as §1

SIK2 = target: T3, SIK2 (Homo sapiens, UniProt Q9H0K1); experiment: ADP-Glo kinase assay, SIK2
T3 construct: purchased ThermoFisher Scientific PV4792
T3 sequence (Q9H0K1 whole entry): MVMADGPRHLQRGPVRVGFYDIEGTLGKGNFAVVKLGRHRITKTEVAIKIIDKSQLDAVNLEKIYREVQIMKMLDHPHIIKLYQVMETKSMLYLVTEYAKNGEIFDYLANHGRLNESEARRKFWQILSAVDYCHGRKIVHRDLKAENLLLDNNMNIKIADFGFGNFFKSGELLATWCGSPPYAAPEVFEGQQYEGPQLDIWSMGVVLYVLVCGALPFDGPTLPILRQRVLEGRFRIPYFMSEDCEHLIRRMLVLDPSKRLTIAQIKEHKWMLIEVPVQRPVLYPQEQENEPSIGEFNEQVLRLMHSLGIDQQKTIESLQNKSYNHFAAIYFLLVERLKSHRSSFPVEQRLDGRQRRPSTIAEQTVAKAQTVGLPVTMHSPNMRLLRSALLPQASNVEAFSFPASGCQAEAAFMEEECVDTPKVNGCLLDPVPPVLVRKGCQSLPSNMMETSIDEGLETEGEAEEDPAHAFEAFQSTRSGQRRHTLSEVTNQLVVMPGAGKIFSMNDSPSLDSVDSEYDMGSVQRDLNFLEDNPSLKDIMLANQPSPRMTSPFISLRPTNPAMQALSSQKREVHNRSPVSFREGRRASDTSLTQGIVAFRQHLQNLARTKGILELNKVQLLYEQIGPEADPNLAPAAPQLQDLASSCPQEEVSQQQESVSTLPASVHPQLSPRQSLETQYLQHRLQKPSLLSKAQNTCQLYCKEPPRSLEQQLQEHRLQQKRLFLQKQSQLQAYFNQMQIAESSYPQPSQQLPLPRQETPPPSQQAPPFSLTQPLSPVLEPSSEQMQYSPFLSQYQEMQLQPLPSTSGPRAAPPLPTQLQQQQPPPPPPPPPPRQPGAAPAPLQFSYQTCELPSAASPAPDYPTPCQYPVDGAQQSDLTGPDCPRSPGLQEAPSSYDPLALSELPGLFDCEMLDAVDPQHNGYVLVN
In short: as §1

T1 sequence (Q9Y2K2 59-365 limits assumed): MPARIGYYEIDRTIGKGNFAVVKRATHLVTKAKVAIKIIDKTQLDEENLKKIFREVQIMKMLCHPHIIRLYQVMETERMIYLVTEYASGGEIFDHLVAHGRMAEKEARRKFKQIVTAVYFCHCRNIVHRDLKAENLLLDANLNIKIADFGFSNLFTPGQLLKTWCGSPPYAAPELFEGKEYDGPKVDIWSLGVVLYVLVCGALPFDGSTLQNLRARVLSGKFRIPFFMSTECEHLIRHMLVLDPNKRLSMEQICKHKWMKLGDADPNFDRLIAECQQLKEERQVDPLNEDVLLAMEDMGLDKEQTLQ

| SMILES | IC50 (SIK3) [nM] | IC50 (SIK1) [nM] | IC50 (SIK2) [nM] |
| --- | --- | --- | --- |
| COc1cc(-c2cnc3cc(C(C)N(C)CCO)ccn23)cc(OC(F)F)c1C(=O)NC1CC1 (stereo not drawn) [Cpd 154, N-cyclopropyl-2-(difluoromethoxy)-4-[7-[1-[2-hydroxyethyl(methyl)amino]ethyl]imidazo[1,2-a]pyridin-3-yl]-6-methoxy-benzamide] | 10 to 100 | > 500 | > 500 |
| COc1cc(-c2cnc3cc(C(C)(C)C#N)ccn23)cc(OC(F)F)c1C(=O)NC(C)C(F)F (stereo not drawn) [Cpd 71, 4-[7-(1-cyano-1-methyl-ethyl)imidazo[1,2-a]pyridin-3-yl]-2-(difluoromethoxy)-N-(2,2-difluoro-1-methyl-ethyl)-6-methoxy-benzamide] | 10 to 100 | > 500 | > 500 |
| COc1cc(-c2cnc3cc(C(O)C4CCC4)ccn23)cc(OC(F)F)c1C(=O)NC1CC1 (stereo not drawn) [Cpd 199, 4-[7-[cyclobutyl(hydroxy)methyl]imidazo[1,2-a]pyridin-3-yl]-N-cyclopropyl-2-(difluoromethoxy)-6-methoxy-benzamide] | 10 to 100 | > 500 | > 500 |
| COc1cc(-c2cnc3cc(C(C)(C)C#N)ccn23)cc(OC(F)F)c1C(=O)NCC1CCOC1 (stereo not drawn) [Cpd 85, 4-[7-(1-cyano-1-methyl-ethyl)imidazo[1,2-a]pyridin-3-yl]-2-(difluoromethoxy)-6-methoxy-N-(tetrahydrofuran-3-ylmethyl)benzamide] | 100 to 500 | > 500 | > 500 |
| COc1cc(-c2cnc3cc(C(C)(C)C#N)ccn23)cc(OC(F)F)c1C(=O)N1CC(OC)C1 [Cpd 98, 2-[3-[3-(difluoromethoxy)-5-methoxy-4-(3-methoxyazetidine-1-carbonyl)phenyl]imidazo[1,2-a]pyridin-7-yl]-2-methyl-propanenitrile] | 10 to 100 | > 500 | > 500 |
| CCN(CC)C(=O)C1(c2ccn3c(-c4cc(OC)c(C(=O)NC5CC5)c(OC(F)F)c4)cnc3c2)CC1 [Cpd 143, N-cyclopropyl-4-[7-[1-(diethylcarbamoyl)cyclopropyl]imidazo[1,2-a]pyridin-3-yl]-2-(difluoromethoxy)-6-methoxy-benzamide] | 100 to 500 | > 500 | > 500 |
| COc1cc(-c2cnc3cc(C4(C#N)COC4)ccn23)cnc1C(=O)NCC(F)(F)F [Cpd 125, 5-[7-(3-cyanooxetan-3-yl)imidazo[1,2-a]pyridin-3-yl]-3-methoxy-N-(2,2,2-trifluoroethyl)pyridine-2-carboxamide] | > 500 | > 500 | > 500 |
| COc1cc(-c2cnn3cc(C(C)(C)C#N)ccc23)cc(OCCO)c1C(=O)NC1CC1 [Cpd 263, 4-[6-(1-cyano-1-methyl-ethyl)pyrazolo[1,5-a]pyridin-3-yl]-N-cyclopropyl-2-(2-hydroxyethoxy)-6-methoxy-benzamide] | 100 to 500 | > 500 | > 500 |
| COc1cc(-c2cnc3cc(C4(C(=O)N5CC(O)C5)CC4)ccn23)cc(OC(F)F)c1C(=O)NC1CC1 [Cpd 144, N-cyclopropyl-2-(difluoromethoxy)-4-[7-[1-(3-hydroxyazetidine-1-carbonyl)cyclopropyl]imidazo[1,2-a]pyridin-3-yl]-6-methoxy-benzamide] | 10 to 100 | > 500 | > 500 |
| COc1cc(-c2cnc3cc(C(C)(C)C#N)ccn23)cc(OC(F)F)c1C(=O)N[C@H]1CCCC[C@@H]1N [Cpd 92, N-[(1S,2S)-2-aminocyclohexyl]-4-[7-(1-cyano-1-methyl-ethyl)imidazo[1,2-a]pyridin-3-yl]-2-(difluoromethoxy)-6-methoxy-benzamide] | 10 to 100 | > 500 | > 500 |
| COc1cc(-c2cnc3cc(C(C)(C)C#N)ccn23)cc(OC(F)F)c1C(=O)N1CC2(CN(C)C2)C1 [Cpd 99, 2-[3-[3-(difluoromethoxy)-5-methoxy-4-(6-methyl-2,6-diazaspiro[3.3]heptane-2-carbonyl)phenyl]imidazo[1,2-a]pyridin-7-yl]-2-methyl-propanenitrile] | 100 to 500 | > 500 | > 500 |
